Assay results: ChEMBL document CHEMBL1201862, “PubChem BioAssay data set” (2004)
Structures can show the parent of a compound that is named as a salt. Calls of active or inactive are those of the source.

How the values were obtained:
fMet-Leu-Phe receptor = target: T1, fMet-Leu-Phe receptor (Homo sapiens, UniProt P21462); assay: FPR ligands, dose response (AID 519); assay type: functional
T1 sequence (P21462 whole entry): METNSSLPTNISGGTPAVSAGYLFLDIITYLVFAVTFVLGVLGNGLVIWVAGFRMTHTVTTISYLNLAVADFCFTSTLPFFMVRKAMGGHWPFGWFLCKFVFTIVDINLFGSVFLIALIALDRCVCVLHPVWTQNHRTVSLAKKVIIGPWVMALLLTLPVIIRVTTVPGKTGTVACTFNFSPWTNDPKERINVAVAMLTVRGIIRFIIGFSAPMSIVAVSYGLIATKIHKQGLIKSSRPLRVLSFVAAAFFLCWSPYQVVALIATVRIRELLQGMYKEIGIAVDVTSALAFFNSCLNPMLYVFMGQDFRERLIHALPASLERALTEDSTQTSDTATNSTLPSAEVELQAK

[1] = THP-1 cell cytotoxicity, dose response, cytotoxicity control for Vif-APOBEC3G degradation inhibitor project, THP-1 cells (AID 1117359); assay type: functional; settings: Human immunodeficiency virus 1, THP-1
Beta-galactosidase = Beta-galactosidase (Escherichia coli, UniProt Q8VNN2); assay: Dose response counterscreen for EBI2 assay utilizing the enzyme, b-galactosidase.; assay type: functional
Cytochrome P450 2D6 = Cytochrome P450 2D6 (Homo sapiens, UniProt P10635);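 also: CYP2D6 member of a cytochrome P450 panel assay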
cells [2] = assay type: functional, cell-based
cells [3] = assay type: functional, cell-based; remark: listed apart in the source
[4] = target: T2, Trace amine-associated receptor 1 (Homo sapiens, UniProt Q96RJ0); assay: Fluorescence-based cell-based high throughput dose response assay to identify agonists of the human trace amine associated receptor 1 (TAAR1).; assay type: functional
T2 sequence (Q96RJ0 whole entry): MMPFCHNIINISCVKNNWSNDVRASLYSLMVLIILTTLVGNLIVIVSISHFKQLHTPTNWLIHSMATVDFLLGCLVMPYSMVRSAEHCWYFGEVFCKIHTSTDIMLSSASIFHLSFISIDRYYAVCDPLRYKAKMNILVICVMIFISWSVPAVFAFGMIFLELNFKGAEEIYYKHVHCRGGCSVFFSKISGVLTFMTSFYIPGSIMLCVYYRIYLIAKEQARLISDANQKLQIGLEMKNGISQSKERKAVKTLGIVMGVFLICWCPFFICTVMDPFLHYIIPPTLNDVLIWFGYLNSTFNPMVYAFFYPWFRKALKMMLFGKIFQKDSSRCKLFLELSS

[5] = target: T2, Trace amine-associated receptor 1; assay: Counterscreen for agonists of the human trace amine associated receptor 1 (hTAAR1): Fluorescence-based cell-based high throughput dose response assay to identify hTAAR1 agonist that also desensitize TAAR1 receptor response.; assay type: functional
Albumin = Albumin (Bos taurus, UniProt P02769); assay: Counterscreen for inhibitors of T-cell receptor (TCR)-CD3 interaction: Fluorescence-based biochemical high throughput dose response assay to identify inhibitors of T-cell receptor (TCR)-CD3 interaction using a TAMRA-labeled BSA probe.; assay type: functional
[6] = ADAM10 inhibitors, peptide cleavage, dose response, biochemical, QFRET (AID 743254);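 also: ADAM10 enzyme with the DM2 quenched FRET peptide as substrate; EDANS fluorescence gain as the protease cuts the substrate; inhibitor potency against ADAM10 proteolytic activity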
[7] = target: Disintegrin and metalloproteinase domain-containing protein 17 (Homo sapiens, UniProt P78536); assay: ADAM17 protease inhibitors, dose response, counter-screen for ADAM10 exosite inhibitor project, biochemical, quenched FRET substrate (AID 743253)
[8] = CRF-BP/CRF-R2 complex antagonists, dose response, cell-based, uHTS hits, 384-well (AID 651639); assay type: functional, Homo sapiens; settings: read-out: IC50_Mean
[9] = target: T3, Corticotropin-releasing factor receptor 2/Corticotropin-releasing factor-binding protein (Homo sapiens, UniProt P24387+Q13324); assay: activators of CRF receptor 2 with binding protein – uHTS hits, confirmation (AID 602473); assay type: functional; settings: read-out: EC50_Mean
T3 sequence (Q13324 whole entry): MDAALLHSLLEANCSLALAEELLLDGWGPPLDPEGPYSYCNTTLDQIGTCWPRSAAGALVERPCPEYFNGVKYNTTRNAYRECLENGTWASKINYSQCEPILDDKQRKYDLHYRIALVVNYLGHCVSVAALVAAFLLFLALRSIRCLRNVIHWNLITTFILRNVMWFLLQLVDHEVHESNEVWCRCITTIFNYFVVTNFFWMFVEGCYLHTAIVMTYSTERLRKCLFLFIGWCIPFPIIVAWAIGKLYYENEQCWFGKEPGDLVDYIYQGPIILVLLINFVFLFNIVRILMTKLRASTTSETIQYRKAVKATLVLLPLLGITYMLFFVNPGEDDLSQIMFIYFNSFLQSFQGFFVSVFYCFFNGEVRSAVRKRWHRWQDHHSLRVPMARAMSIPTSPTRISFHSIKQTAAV
T3 sequence (P24387 whole entry): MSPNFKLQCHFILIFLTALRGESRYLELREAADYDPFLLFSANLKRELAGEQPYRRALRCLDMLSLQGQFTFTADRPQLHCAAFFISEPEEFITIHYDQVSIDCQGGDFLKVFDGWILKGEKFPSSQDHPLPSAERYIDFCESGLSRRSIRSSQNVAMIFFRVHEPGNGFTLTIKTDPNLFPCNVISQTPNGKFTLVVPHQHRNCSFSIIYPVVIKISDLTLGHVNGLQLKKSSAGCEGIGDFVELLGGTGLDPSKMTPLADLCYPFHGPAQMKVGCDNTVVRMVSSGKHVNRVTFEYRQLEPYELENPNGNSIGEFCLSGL

[10] = target: T3, Corticotropin-releasing factor receptor 2/Corticotropin-releasing factor-binding protein; assay: Dose Response confirmation of uHTS hits for small molecule antagonists of the CRF-binding protein and CRF-R2 receptor complex.; assay type: functional; settings: read-out: IC50_Mean
[11] = growth suppression of beta-catenin-knockout colon cells, dose response, cell-based, HCT116, human colon tumor (AID 1045); assay type: functional;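 also: HCT116 colon tumor cells with beta catenin knocked out; cells exposed to compound for 60 hours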
[12] = growth suppression of PTEN-null colon cells, dose response, cell-based, HCT116 PTEN knockout (AID 1047); assay type: functional;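 also: HCT116 colon tumor cells with PTEN knocked out; cells exposed to compound for 60 hours before readout; potency for loss of cell viability measured by luminescence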
HEK293 = assay: inhibitors of LMP1-driven NF-kB reporter, dose response, cell-based, HEK293, luciferase, cherry-pick (AID 588343); assay type: functional; settings: Homo sapiens
[13] = HEp-2 cell cytotoxicity, dose response, cytotoxicity control for RSV inhibitor project, HTS (AID 2410); assay type: functional; settings: human respiratory syncytial virus
[14] = Counterscreen for inhibitors of Trypanosoma brucei methionyl tRNA synthetase (MetRS): Luminescence-based cell-based high throughput dose response assay to identify compounds that are cytotoxic to Jurkat human T lymphocyte cells.; assay type: functional
[15] = target: T4, Methionyl-tRNA synthetase, putative (Trypanosoma brucei brucei, UniProt Q38C91); assay type: functional, Trypanosoma brucei brucei strain 927/4 GUTat10.1;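 also: Read-out by fluorescence polarization, run as a confirmatory high-throughput counterscreen; potency of MetRS inhibitors measured by reduced AMP formation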
T4 sequence (Q38C91 whole entry): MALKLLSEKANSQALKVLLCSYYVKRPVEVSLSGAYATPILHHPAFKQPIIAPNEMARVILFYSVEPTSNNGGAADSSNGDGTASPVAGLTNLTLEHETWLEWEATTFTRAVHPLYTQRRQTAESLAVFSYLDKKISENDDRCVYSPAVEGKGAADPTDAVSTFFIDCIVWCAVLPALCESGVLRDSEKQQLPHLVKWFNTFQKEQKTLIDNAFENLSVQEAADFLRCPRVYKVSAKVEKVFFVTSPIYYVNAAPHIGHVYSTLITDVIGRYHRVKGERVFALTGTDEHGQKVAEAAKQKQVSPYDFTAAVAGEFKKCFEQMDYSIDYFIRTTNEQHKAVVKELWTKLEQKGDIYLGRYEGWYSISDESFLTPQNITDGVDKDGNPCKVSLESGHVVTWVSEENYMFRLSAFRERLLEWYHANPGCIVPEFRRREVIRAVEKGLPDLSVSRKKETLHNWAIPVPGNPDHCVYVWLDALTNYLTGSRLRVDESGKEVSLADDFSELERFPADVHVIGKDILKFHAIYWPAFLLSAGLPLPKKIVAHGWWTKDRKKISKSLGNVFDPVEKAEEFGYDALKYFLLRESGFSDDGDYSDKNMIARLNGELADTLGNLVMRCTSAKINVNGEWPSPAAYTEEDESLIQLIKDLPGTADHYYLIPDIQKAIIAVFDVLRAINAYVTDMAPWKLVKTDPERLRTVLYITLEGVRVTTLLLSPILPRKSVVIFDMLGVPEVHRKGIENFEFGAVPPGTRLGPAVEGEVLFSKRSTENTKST

[16] = THP-1 cell cytotoxicity, dose response, cytotoxicity control for non-replicating M. tuberculosis project (AID 489025); assay type: functional
Nonstructural protein 1 = Nonstructural protein 1 (Influenza A virus, UniProt Q194T2); assay type: functional, Influenza A virus (A/California/07/2009(H1N1))
[17] = system: Streptococcus sp. 'group A'; assay: growth inhibition of control SK(-) GAS strain, dose response, counter-screen for streptokinase expression inhibitor project, luminescence, kanamycin, BacTiterGlo, confirmation (AID 1900); assay type: functional, organism-based
Streptococcus = assay: Group A Streptococcus viability loss, dose response, counter-screen for streptokinase expression inhibitor project, luminescence, BacTiterGlo (AID 1915); assay type: functional, organism-based;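 also: potency for reduction of bacterial viability or growth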
H9c2 = assay: cells; assay type: functional, cell-based; settings: Rattus norvegicus, H9c2, Myocardium

Chain of Disintegrin and metalloproteinase domain-containing protein 17 (P78536 whole entry, the tested form may be a part): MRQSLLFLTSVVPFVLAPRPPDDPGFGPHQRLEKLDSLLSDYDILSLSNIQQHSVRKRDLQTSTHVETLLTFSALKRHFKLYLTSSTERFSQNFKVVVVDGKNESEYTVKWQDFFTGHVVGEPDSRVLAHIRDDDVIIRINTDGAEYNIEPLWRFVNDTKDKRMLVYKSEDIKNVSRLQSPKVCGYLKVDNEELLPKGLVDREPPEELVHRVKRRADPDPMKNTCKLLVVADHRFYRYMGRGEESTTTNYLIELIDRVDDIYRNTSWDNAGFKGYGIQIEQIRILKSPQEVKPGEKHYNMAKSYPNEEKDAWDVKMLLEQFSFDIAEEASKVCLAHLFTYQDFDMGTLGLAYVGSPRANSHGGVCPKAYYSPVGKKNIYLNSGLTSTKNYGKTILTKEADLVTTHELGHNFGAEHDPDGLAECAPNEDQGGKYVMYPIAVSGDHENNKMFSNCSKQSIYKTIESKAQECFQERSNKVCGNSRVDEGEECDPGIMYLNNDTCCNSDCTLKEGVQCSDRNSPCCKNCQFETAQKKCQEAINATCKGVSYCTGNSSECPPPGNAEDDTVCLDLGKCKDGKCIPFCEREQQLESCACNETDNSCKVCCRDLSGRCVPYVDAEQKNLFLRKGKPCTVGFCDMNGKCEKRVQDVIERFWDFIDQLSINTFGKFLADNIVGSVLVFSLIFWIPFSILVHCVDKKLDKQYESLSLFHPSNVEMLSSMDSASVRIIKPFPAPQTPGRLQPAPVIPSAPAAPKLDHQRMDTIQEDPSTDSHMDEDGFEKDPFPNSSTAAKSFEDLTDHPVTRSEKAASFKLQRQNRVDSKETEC
Chain of Albumin (P02769 whole entry): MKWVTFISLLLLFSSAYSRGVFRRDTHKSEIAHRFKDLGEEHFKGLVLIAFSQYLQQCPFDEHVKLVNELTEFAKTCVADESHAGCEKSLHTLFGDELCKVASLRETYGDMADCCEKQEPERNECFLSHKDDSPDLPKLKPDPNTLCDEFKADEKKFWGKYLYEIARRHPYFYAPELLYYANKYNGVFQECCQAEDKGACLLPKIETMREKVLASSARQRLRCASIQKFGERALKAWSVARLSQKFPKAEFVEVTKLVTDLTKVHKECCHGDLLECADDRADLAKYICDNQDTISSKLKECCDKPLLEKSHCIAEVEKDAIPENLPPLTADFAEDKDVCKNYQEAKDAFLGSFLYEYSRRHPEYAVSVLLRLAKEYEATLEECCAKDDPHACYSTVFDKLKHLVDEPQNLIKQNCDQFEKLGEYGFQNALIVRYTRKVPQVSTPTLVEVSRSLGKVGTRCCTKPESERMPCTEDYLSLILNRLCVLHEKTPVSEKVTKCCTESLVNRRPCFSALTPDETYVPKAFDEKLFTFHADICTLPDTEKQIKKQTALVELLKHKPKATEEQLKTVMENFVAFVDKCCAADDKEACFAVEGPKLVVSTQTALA
Chain of Beta-galactosidase (Q8VNN2 whole entry): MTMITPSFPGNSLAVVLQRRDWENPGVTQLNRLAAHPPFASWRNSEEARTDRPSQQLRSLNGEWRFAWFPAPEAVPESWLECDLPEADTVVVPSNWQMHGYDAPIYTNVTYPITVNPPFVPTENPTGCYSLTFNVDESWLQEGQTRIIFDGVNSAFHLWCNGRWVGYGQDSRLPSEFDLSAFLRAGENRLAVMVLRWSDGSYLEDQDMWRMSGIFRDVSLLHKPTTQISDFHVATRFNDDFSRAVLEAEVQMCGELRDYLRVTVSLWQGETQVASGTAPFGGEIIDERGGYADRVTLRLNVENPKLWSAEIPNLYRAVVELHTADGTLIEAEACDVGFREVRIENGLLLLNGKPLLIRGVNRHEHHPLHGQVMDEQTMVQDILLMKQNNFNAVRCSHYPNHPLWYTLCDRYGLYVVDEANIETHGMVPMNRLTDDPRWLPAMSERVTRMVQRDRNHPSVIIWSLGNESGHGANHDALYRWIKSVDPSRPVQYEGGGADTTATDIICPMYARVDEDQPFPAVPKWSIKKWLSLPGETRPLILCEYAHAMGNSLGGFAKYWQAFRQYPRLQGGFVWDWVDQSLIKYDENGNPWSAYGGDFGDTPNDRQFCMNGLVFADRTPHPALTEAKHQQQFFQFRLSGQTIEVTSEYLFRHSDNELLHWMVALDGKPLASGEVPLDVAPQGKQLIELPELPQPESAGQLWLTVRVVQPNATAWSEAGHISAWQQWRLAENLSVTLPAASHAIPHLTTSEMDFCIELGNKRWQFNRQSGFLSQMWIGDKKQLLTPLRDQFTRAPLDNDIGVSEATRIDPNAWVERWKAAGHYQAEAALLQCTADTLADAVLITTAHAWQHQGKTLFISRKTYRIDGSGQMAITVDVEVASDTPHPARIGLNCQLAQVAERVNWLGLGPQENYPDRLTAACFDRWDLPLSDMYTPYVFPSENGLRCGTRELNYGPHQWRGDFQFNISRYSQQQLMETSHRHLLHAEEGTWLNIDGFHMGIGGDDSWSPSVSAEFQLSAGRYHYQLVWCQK
Chain of Nonstructural protein 1 (Q194T2 whole entry): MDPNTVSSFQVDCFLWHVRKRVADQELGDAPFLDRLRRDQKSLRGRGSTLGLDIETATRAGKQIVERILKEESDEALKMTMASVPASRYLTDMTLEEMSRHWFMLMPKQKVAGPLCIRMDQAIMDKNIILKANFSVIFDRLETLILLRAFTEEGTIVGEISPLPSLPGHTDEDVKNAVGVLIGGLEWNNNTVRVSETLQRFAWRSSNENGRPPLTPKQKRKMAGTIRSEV
Chain of Cytochrome P450 2D6 (P10635 whole entry): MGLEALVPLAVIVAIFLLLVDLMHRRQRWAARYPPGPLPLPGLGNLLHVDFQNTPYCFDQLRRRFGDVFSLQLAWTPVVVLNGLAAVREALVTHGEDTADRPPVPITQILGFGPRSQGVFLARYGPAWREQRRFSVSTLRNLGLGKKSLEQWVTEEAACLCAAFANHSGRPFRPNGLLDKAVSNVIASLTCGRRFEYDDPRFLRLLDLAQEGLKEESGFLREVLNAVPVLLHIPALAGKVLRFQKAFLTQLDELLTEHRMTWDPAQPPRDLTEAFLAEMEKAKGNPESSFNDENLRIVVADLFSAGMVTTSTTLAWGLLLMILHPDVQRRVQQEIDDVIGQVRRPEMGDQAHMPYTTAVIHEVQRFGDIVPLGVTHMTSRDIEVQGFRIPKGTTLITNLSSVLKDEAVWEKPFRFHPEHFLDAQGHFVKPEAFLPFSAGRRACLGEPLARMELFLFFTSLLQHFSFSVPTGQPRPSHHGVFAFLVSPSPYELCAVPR

## COCCCN1C(=O)C(O)=C(C(=O)c2ccc3c(c2)CC(C)O3)C1c1cccnc1 (configuration not stated)
fMet-Leu-Phe receptor
  Ki: > 66.7 µM (inactive)

## Nc1c(S(=O)(=O)c2ccccc2)c2nc3ccccc3nc2n1/N=C/c1ccco1
[1]
  CC50: > 40 µM (active)
Beta-galactosidase
  IC50: > 80 µM (inactive)

## COc1ccc(-c2cc(C(F)(F)F)nc(NC3CCCC3)n2)cc1OC
Cytochrome P450 2D6
  AC50: 20 µM (inconclusive)
fMet-Leu-Phe receptor
  Ki: > 66.7 µM (inactive)

## OC[C@@H]1CN(Cc2cccc(C(F)(F)F)c2)C[C@H](n2cnc3c(NC4CC4)ncnc32)O1
Beta-galactosidase
  IC50: > 80 µM (inactive)

## CN(C)c1ccc(/C=N/CC2COc3ccccc3O2)cc1 (configuration not stated)
Cells [2]
  IC50: > 29.9 µM (inactive)
Cells [3]
  EC50: > 29.9 µM (inactive)
[4]
  EC50: 4.25 µM (active)
[5]
  IC50: 14.3 µM (inactive)

## CCc1ccccc1NC(=O)NNC(=O)c1ccc2ccccc2c1O
Albumin
  IC50: > 94.1 µM (inactive)

## CCOc1ccc(CCN2C(=S)N([C@@H](Cc3ccc(O)cc3)CN3CCC[C@@H]3CN3C(=S)NC[C@@H]3CC(C)C)C[C@@H]2Cc2ccccc2)cc1
[6]
  IC50: > 69.5 µM (inactive)
[7]
  IC50: > 69.5 µM (inactive)

## CCc1nc2ccc(C(=O)Nc3cccc(OC)c3)cn2c1N(CC)Cc1cccc(Br)c1
[6]
  IC50: > 69.5 µM (inactive)
[7]
  IC50: > 69.5 µM (inactive)

## O=C(CC(c1ccccc1)c1ccccc1O)NCc1ccccc1Cl (configuration not stated)
[8]
  IC50: > 20 µM (inactive)
[9]
  EC50: > 53 µM (inactive)
[10]
  IC50: 2.7 µM (active)

## O=C(Nc1ccc(Cl)cc1)N1CCC(c2ccccc2)C1 (configuration not stated)
Beta-galactosidase
  IC50: > 80 µM (inactive)

## O=C(CCN1CCC(c2ccccc2)C1)c1ccc2c(c1)OCCO2 (configuration not stated) [PROROXAN HYDROCHLORIDE]
[11]
  EC50: 34.3 µM (active)
Cells [2]
  IC50: > 29.9 µM (inactive)
Cells [3]
  EC50: > 29.9 µM (inactive)
[12]
  EC50: 36.3 µM (active)
[4]
  EC50: 0.21 µM (active)
HEK293
  AC50: 76.8 µM (active)
[5]
  IC50: 1.46 µM (active)

## CCOC(=O)C1=C(C)N(Cc2ccccc2)C(=O)NC1c1ccccc1OS(=O)(=O)c1ccccc1[N+](=O)[O-] (configuration not stated)
[6]
  IC50: > 69.5 µM (inactive)
[13]
  CC50: 5.56 µM (active)
[7]
  IC50: > 69.5 µM (inactive)

## O=C(Nc1ccccc1)Nc1ccc(S(=O)(=O)N2CCCCC2)cc1
[14]
  IC50: 47.5 µM (inactive)
[15]
  IC50: 26.9 µM (inactive)

## S=C1SCN(CCc2ccccc2)CN1CCc1ccccc1
Cells [2]
  IC50: > 29.9 µM (inactive)
Cells [3]
  EC50: > 29.9 µM (inactive)
[4]
  EC50: 2.11 µM (active)
[5]
  IC50: 3.35 µM (active)

## NCCc1nc(-c2ccccc2)cs1
Cells [2]
  IC50: > 29.9 µM (inactive)
Cells [3]
  EC50: > 29.9 µM (inactive)
[4]
  EC50: 4.72 µM (active)
[5]
  IC50: > 29.9 µM (inactive)

## Cc1ccc(Cl)cc1N1CCN(C(=O)Cc2c(C(=O)O)[nH]c3ccccc23)CC1
[8]
  IC50: > 20 µM (inactive)
[9]
  EC50: > 53 µM (inactive)
[10]
  IC50: 33.5 µM (active)

## OC(c1ccccc1)(c1nc(-c2cccc(C(F)(F)F)c2)cs1)C(F)(F)F (configuration not stated)
[6]
  IC50: 11.2 µM (inactive)
[7]
  IC50: > 69.5 µM (inactive)

## COc1ccc(C(=O)C=CNNC(=O)c2ccc(Cl)cc2)cc1
[16]
  CC50: 15.6 µM (active)
Albumin
  IC50: > 94.1 µM (inactive)

## O=C(N/N=C/c1cc([N+](=O)[O-])ccc1O)c1cccc(N2CCCC2=O)c1
Albumin
  IC50: > 94.1 µM (inactive)
Nonstructural protein 1
  IC50: 6.59 µM (active)
[17]
  EC50: 0.935 µM (active)
Streptococcus
  EC50: 1.9 µM (active)

## O=C(Cn1nc(C(=O)O)c2ccccc2c1=O)c1c[nH]c2ccccc12
H9c2
  IC50: > 79 µM (inactive)
Beta-galactosidase
  IC50: > 80 µM (inactive)
